Data reported in patent US10471139B2, “Toll-like receptor agonists” (The University of Kansas, priority 2013, dated 2019).
Where two headings read alike, the source gives them in different places.

Target: T1, human TLR8 (Homo sapiens, UniProt Q9NR97)
T1 construct: expressed in transfected cells; host or cells: HEK293 (HEK-Blue-8)
T1 sequence (Q9NR97 27-1041): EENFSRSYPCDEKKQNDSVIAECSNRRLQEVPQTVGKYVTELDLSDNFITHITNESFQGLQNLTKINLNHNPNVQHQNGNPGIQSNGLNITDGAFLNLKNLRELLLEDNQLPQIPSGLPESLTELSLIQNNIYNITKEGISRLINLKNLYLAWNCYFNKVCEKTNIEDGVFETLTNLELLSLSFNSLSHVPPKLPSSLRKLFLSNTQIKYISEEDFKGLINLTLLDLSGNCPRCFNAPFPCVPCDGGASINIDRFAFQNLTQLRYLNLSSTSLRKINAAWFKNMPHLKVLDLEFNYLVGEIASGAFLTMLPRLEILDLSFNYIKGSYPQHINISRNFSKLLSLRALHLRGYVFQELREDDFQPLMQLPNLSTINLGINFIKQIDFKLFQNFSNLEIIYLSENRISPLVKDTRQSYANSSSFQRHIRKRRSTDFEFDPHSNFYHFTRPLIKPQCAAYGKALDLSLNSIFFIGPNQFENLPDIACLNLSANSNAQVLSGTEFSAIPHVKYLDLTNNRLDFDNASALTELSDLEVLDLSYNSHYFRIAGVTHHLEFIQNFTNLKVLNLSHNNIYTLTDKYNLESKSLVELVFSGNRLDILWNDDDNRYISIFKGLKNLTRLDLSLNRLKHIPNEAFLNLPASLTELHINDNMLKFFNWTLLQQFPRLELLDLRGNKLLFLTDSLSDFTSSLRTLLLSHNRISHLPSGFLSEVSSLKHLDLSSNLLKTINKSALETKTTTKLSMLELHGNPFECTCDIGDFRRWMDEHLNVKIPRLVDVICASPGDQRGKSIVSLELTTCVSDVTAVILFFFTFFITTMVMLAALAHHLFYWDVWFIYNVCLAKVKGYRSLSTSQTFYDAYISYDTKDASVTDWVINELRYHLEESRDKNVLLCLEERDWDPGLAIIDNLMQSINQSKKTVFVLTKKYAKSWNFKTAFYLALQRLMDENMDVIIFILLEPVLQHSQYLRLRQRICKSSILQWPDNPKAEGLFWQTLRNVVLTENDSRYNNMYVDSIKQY
Assay: Human TLR8 reporter gene assay (NF-κB induction), HEK-Blue-8 cells
Format: cell-based

[1] = human TLR 8-specific reporter gene assays
[2] = human TLR 8-specific reporter gene assays, read-out: hTLR8 Agonistic Activity (EC50)
[3] = primary screens, read-out: TLR8-agonistic activity EC50

From the text: Human TLR-7/-8 Reporter Gene Assays (NF-κB Induction).
The induction of NF-κB was quantified using HEK-Blue-7 (hTLR7-specific) and HEK-Blue-8 (hTLR8-specific) cells. HEK293 cells stably co-transfected with human TLR7 or human TLR8, MD2, and secreted alkaline phosphatase (sAP), were maintained in HEK-Blue™ Selection medium containing zeocin and normocin. Stable expression of secreted alkaline phosphatase (sAP) under control of NF-κB/AP-1 promoters is inducible by appropriate TLR agonists, and extracellular sAP in the supernatant is proportional to NF-κB induction.
HEK293 cells stably co-transfected with the appropriate hTLR (or NOD) and secreted alkaline phosphatase (sAP) were maintained in HEK-Blue™ Selection medium. Stable expression of secreted alkaline phosphatase (sAP) under control of NF-κB/AP-1 promoters is inducible by appropriate TLR/NOD agonists, and extracellular sAP in the supernatant is proportional to NF-κB induction.

| hTLR8 Agonistic Activity (EC50) [1] | SMILES | further results |
| --- | --- | --- |
| Inactive | CCCCC1(O)C(N)=Nc2ccccc21 (stereo not drawn) [Compound A5, 2-amino-3-butyl-3H-indol-3-ol] | TLR8-agonistic activity EC50 (primary screens): inactive |
|  | CCCCn1c(N)nc2ccccc21 [Compound A8a, 1-butyl-1H-benz[d]imidazol-2-amine] | EC50 [2]: 7.3 µM |
|  | CCCCCn1c(N)nc2ccccc21 [Compound A8b, 1-Pentyl-1H-benzo[d]imidazol-2-amine] | EC50 [3]: 3.23 µM |
|  | CCCCCCn1c(N)nc2ccccc21 [Compound A8c, 1-Hexyl-1H-benzo[d]imidazol-2-amine] | EC50 [2]: 3.96 µM |
| Inactive | Nc1nc2ccccc2n1Cc1ccccc1 [Compound A8d, 1-Benzyl-1H-benzo[d]imidazol-2-amine] |  |
| Inactive | NCc1cccc(Cn2c(N)nc3ccccc32)c1 [Compound A8f, 1-(3-(aminomethyl)benzyl)-1H-benzo[d]imidazol-2-amine] |  |
| Inactive | CCCCOC(=O)n1c(N)nc2ccccc21 [Compound A9, butyl 2-amino-1H-benzo[d]imidazole-1-carboxylate] | TLR8-agonistic activity EC50 (primary screens): completely abrogated activity |
| Inactive | CCCCCn1c(NC(C)=O)nc2ccccc21 [Compound A10, N-(1-pentyl-1H-benzo[d]imidazol-2-yl)acetamide] | TLR8-agonistic activity EC50 (primary screens): completely abrogated activity |
| Inactive | CCCCCn1c(N)nc2cc3ccccc3cc21 [Compound A13, 1-Pentyl-1H-naphtho[2,3-d]imidazol-2-amine] |  |
| Inactive | CCCCCn1c(N)nc2ccc3ccccc3c21 [Compound A18, 1-pentyl-1H-naphtho[1,2-d]imidazol-2-amine] |  |
|  | CCCCCn1c(N)nc2c3ccccc3ccc21 [Compound A23, 3-Pentyl-3H-naphtho[1,2-d]imidazol-2-amine] | EC50 [3]: 3.16 µM |
| Inactive | CCCCCn1c(N)nc2ncccc21 [Compound A27a, 1-Pentyl-1H-imidazo[4,5-b]pyridin-2-amine] |  |
| Inactive | CCCCCn1c(N)nc2cnccc21 [Compound A27b, 1-Pentyl-1H-imidazo[4,5-c]pyridin-2-amine] |  |
| Inactive | CCCCCn1c(N)nc2ccncc21 [Compound A27c, 3-Pentyl-3H-imidazo[4,5-c]pyridin-2-amine] |  |
| Inactive | CCCCCn1c(N)nc2cccnc21 [Compound A27d, 3-Pentyl-3H-imidazo[4,5-b]pyridin-2-amine] |  |
|  | CCCCCn1c(N)nc2cc(C)ccc21 [Compound A31b, 5-Methyl-1-pentyl-1H-benzo[d]imidazol-2-amine] | EC50 [2]: 4.57 µM |
|  | CCCCCn1c(N)nc2ccc(C)cc21 [Compound A31c, 6-Methyl-1-pentyl-1H-benzo[d]imidazol-2-amine] | EC50 [2]: 7.21 µM |
|  | CCCCCn1c(N)nc2cccc(C)c21 [Compound A31d, 7-Methyl-1-pentyl-1H-benzo[d]imidazol-2-amine] | EC50 [2]: 6.61 µM |
|  | CCCCCn1c(N)nc2c(OC)cccc21 [Compound A31e, 4-Methoxy-1-pentyl-1H-benzo[d]imidazol-2-amine] | EC50 [3]: 3.74 µM |
| Inactive | CCCCCn1c(N)nc2c(F)cccc21 [Compound A31f, 4-Fluoro-1-pentyl-1H-benzo[d]imidazol-2-amine] |  |
| Inactive | CCCCCn1c(N)nc2c(Cl)cccc21 [Compound A31g, 4-Chloro-1-pentyl-1H-benzo[d]imidazol-2-amine] |  |
| Inactive | CCCCCn1c(N)nc2c(C(F)(F)F)cccc21 [Compound A31h, 1-Pentyl-4-(trifluoromethyl)-1H-benzo[d]imidazol-2-amine] |  |
| Inactive | CCCCCn1c(N)nc2c(Br)cccc21 [Compound A31i, 4-Bromo-1-pentyl-1H-benzo[d]imidazol-2-amine] |  |
|  | CCCCCn1c(N)nc2c(CC)cccc21 [Compound A31j, 4-Ethyl-1-pentyl-1H-benzo[d]imidazol-2-amine] | EC50 [2]: 1.65 µM |
